Experimental data taken from ChEMBL document CHEMBL6153066, “Discovery of CZY43 as a new small-molecule degrader of pseudokinase HER3” (Eur J Med Chem, 2025).
Activity calls are given as the source filed them. The calls are words filed in the database; no cut-off is given here.

Experiments:
[1] = tested on: SK-BR-3; assay: Antiproliferative activity against human SK-BR-3 cells incubated for 72 hrs by CCK8 assay; type: functional, cell-based; details: SK-BR-3, 72 h
[2] = molecular target: T1, Receptor tyrosine-protein kinase erbB-3 (Homo sapiens, UniProt P21860); assay: Induction of hydrophobic tag-mediated HER3 degradation in human SK-BR-3 cells incubated for 8 hrs by immunoblot analysis; type: cell-based
T1 sequence (P21860 whole entry): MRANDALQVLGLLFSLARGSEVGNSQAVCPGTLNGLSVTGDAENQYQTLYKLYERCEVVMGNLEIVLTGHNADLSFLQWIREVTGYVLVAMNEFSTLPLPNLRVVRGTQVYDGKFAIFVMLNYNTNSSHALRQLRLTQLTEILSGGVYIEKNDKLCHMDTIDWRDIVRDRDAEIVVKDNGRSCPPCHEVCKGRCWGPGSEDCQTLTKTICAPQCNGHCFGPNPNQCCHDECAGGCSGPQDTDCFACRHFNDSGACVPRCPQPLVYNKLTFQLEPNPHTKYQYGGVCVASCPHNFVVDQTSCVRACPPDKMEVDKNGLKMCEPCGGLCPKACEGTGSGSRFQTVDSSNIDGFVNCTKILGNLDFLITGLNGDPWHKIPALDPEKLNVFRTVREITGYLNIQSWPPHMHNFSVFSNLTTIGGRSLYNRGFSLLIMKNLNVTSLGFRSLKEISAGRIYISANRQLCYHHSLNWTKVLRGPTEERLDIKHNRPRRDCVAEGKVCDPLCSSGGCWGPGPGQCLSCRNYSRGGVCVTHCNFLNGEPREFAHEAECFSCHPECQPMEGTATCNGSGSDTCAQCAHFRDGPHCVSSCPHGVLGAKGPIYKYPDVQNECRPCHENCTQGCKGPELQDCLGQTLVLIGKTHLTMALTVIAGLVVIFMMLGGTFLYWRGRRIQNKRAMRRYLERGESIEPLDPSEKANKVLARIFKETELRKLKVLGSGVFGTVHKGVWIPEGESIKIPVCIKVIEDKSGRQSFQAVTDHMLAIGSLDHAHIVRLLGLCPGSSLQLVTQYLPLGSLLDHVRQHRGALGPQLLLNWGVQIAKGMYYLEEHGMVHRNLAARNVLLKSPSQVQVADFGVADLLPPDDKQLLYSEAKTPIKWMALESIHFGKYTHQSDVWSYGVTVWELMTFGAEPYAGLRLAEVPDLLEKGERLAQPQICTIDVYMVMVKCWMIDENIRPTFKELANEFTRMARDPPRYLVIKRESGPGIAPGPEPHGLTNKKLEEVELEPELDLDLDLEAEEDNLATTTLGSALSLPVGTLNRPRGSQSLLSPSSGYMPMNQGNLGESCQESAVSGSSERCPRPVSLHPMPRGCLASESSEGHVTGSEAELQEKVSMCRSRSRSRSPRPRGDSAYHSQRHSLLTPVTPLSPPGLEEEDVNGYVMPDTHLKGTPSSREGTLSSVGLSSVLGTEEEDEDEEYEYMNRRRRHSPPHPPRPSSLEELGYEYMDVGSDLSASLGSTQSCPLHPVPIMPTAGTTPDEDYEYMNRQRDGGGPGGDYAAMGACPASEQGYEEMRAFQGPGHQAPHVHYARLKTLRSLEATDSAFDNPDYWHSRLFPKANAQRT

[3] = molecular target: T1, Receptor tyrosine-protein kinase erbB-3; assay: Induction of hydrophobic tag-mediated HER3 degradation in human SK-BR-3 cells at 1000 nM by immunoblot analysis; type: cell-based; details: time <= 24.0 hrs
[4] = molecular target: T1, Receptor tyrosine-protein kinase erbB-3; assay: Induction of hydrophobic tag-mediated HER3 degradation in human MDA-MB-453 cells upto 2000 nM incubated for 8 hrs by immunoblot analysis; type: cell-based
[5] = molecular target: T1, Receptor tyrosine-protein kinase erbB-3; assay: Induction of hydrophobic tag-mediated HER3 degradation in human A549 cells upto 2000 nM incubated for 8 hrs by immunoblot analysis; type: cell-based
[6] = molecular target: T1, Receptor tyrosine-protein kinase erbB-3; assay: Induction of Hsp90 binding to HER3 in human SK-BR-3 cells at 1 uM incubated for 8 hrs by Co-IP method; type: cell-based
[7] = molecular target: T1, Receptor tyrosine-protein kinase erbB-3; assay: Induction of HER3 ubiquitination in human SK-BR-3 cells at 1 uM incubated for 8 hrs by Co-IP method; type: cell-based
[8] = molecular target: T1, Receptor tyrosine-protein kinase erbB-3; assay: Induction of hydrophobic tag-mediated HER3 degradation in human SK-BR-3 cells at 1 uM incubated for 8 hrs in presence of chloroquine by immunoblot analysis; type: cell-based
[9] = molecular target: T1, Receptor tyrosine-protein kinase erbB-3; assay: Induction of hydrophobic tag-mediated HER3 degradation in human SK-BR-3 cells at 1 uM incubated for 8 hrs in presence of MG132 by immunoblot analysis; type: cell-based
[10] = tested on: SK-BR-3; assay: Induction of autophagy in human SK-BR-3 cells assessed as increase in LC3B-II level upto 2 uM incubated for 8 hrs by Western blot analysis; type: functional, cell-based
[11] = molecular target: T1, Receptor tyrosine-protein kinase erbB-3; assay: Induction of hydrophobic tag-mediated HER3 degradation in human SK-BR-3 cells assessed as decrease in HER3 level upto 2000 nM incubated for 8 hrs by immunoblot analysis; type: cell-based
[12] = molecular target: T1, Receptor tyrosine-protein kinase erbB-3; assay: Induction of hydrophobic tag-mediated HER3 degradation in human SK-BR-3 cells assessed as decrease in p-AKT level upto 2000 nM incubated for 8 hrs by immunoblot analysis; type: cell-based
[13] = tested on: SK-BR-3; assay: Inhibition of cell adhesion in human SK-BR-3 cells upto 2000 nM incubated for 8 hrs by crystal violet staining based analysis; type: functional

COc1cc(Nc2c(C#N)cnc3cc(OCCCN4CCN(C)CC4)c(OC)cc23)c(Cl)cc1Cl [BOSUTINIB] gave an IC50 [1] of 5140 nM.
In the case of COc1cc(Nc2c(C#N)cnc3cc(OCCCN4CCC5(CC4)CCN(CCC46C[C@H]7C[C@@H](C4)C[C@@H](C6)C7)CC5)c(OC)cc23)c(Cl)cc1Cl, the DC50 [2] is reported as 559 nM, the Activity ([2]; dose <= 2000.0 nM) is reported as “Dose-dependent-effect” and the Activity [3] is reported as “Time-dependent-effect”. The Activity [4] was “Active”, the Activity [5] was “Active” and the Activity [6] was “Active”. The Activity [7] was “Active”, the Activity [8] was “inactive” and the Activity [9] was “Active”. The Activity [10] was “Active”, the Activity [11] was “Active; Exhibited As More Potent Than Bosutinib” and the Activity [12] was “Active; Exhibited As More Potent Than Bosutinib”. For the same molecule, the IC50 [1] was 530 nM and the inhibition [13] was “Active”.
